Key:
SLC26A7 [1] = target: T1, SLC26A7 (Mus musculus, UniProt Q8R2Z3, F233L/S639T); assay: 36Cl- uptake in SLC26A7-injected Xenopus oocytes; assay type: cell-based; parameters: Full-length mouse SLC26A7 and SLC26A9 cDNAs were cloned into the Xenopus expression vector pGEMHE; expressed in transfected cells; host or cells: Xenopus laevis oocytes injected with cRNA transcribed in vitro from pGEMHE; conditions: 1 mM DIDS, pH 6.0, isotonic and hypotonic conditions
T1 sequence (Q8R2Z3 1-656 F233L/S639T): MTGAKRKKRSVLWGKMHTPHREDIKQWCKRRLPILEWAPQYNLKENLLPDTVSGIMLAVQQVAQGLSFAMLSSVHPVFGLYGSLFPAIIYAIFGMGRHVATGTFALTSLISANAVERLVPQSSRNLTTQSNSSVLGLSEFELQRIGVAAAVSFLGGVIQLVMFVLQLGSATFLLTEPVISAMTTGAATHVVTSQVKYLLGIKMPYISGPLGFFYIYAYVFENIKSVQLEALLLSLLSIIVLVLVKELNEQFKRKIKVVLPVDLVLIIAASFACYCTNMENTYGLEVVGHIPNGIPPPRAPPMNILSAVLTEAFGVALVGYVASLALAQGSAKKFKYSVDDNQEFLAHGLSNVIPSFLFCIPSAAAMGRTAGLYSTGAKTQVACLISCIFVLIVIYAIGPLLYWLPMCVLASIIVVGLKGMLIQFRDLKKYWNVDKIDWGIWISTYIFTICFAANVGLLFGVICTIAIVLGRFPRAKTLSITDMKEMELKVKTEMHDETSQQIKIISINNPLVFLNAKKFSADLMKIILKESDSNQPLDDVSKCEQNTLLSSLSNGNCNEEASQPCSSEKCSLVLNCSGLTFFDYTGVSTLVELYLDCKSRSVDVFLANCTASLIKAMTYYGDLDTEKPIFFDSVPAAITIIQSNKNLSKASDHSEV
Procedure: FIG. 3A is a bar graph that depicts ^36Cl^− uptake (pmol/oocyte/h) as a function of extracellular osmolality and pH in SLC26A7-injected oocytes (A7) and water injected control oocytes (H2O). Oocytes were incubated during the pre-uptake period and uptake period at varying osmolaltiy at either pH 7.4 (open bars), pH 6.0 (black bars), or at pH 6.0 in the presence of 1 mM DIDS (grey bars). ISO, isotonic osmolality, 210 mOsm/kg; HYPO, hypotonic osmolality, 120 mOsm/kg; HYPER, hypertonic osmolality, 300 mOsm/kg; h, hour.

SLC26A9 [2] = target: T2, SLC26A9 (Mus musculus, UniProt Q8BU91, G332D/L540F); assay: 36Cl- uptake (Cl-Cl exchange) in SLC26A9-injected Xenopus oocytes; assay type: cell-based; parameters: Full-length mouse SLC26A7 and SLC26A9 cDNAs were cloned into the Xenopus expression vector pGEMHE; expressed in transfected cells; host or cells: Xenopus laevis oocytes injected with cRNA transcribed in vitro from pGEMHE; conditions: 1 mM DIDS, pH 6.0
T2 sequence (Q8BU91 1-790 G332D/L540F): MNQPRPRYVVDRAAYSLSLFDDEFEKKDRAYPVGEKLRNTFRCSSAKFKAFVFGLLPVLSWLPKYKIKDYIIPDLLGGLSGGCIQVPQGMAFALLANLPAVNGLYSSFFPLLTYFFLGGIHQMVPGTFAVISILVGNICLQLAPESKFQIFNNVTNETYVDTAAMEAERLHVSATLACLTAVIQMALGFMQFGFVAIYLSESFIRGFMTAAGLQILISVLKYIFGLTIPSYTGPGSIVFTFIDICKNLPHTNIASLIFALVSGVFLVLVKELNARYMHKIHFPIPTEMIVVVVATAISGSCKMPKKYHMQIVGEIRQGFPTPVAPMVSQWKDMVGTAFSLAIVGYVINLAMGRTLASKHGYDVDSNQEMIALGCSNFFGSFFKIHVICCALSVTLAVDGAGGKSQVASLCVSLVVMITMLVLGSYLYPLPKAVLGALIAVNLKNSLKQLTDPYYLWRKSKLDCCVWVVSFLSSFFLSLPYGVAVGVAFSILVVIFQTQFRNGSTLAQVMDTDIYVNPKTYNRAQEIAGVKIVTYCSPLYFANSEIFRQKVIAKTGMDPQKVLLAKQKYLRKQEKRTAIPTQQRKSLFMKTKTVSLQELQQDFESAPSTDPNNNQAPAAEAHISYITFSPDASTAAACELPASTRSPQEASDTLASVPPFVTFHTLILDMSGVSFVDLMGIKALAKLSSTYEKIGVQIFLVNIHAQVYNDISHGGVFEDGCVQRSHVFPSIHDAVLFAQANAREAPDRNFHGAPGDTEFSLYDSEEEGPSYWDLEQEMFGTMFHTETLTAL
Procedure: FIG. 3B is a bar graph that depicts DIDS inhibition of ^36Cl^− uptake (pmol/oocyte/h) in SLC26A9injected oocytes (Slc26a9) and water-injected control oocytes (H2O). Oocytes were incubated during the pre-uptake period and uptake period at either pH 7.4 (open bars), pH 6.0 (black bars), or at pH 6.0 in the presence of 1 mM DIDS (grey bars). H, hour.
FIG. 3C is a bar graph that depicts a lack of cis-inhibition of Cl^−-Cl^− exchange in oocytes expressing SLC26A9 or in control oocytes (H2O). Oocytes were incubated in medium containing ^36Cl^− for one hour in the absence (control) or presence of 25 mM of the indicated anions.

SLC26A2 = conditions: 25 mM Cl- added to the medium
Procedure: (§1) Oocytes expressing SLC26A2, SLC26A7, or SLC26A9, or control oocytes (H2O) were incubated in medium containing ^35SO4^2− for one hour. (−), Cl^−-free medium; (+), 25 mM Cl^− added to the medium; hr, hour.
(§2) Full-length mouse SLC26A7 and SLC26A9 cDNAs were cloned into the Xenopus expression vector pGEMHE (Liman et al., 1992). SLC26A6 and SLC26A2 constructs were also prepared for use as controls in transport assays (Example 7). Expression constructs were linearized, and cRNA was transcribed in vitro using T7 RNA polymerase and a […] MMACHINE® transcription kit (Ambion, Inc. of Austin, Tex., United States of America). Defolliculated oocytes were injected with 25 nl to 50 nl of water or with a solution containing cRNA at a concentration of 0.5 μg/μl (12.5 ng to 25 ng per oocyte) using a Nanoliter-2000 injector (WPI Instruments of Sarasota, Fla., United States of America). Oocytes were incubated at 17° C. in 50% Leibovitz's L-15 media supplemented with penicillin/streptomycin (1000 units/ml) and glutamine for 2-3 days for uptake assays.
(§3) For sulphate uptake assays, oocytes were pre-incubated for 20 minutes in chloride-free uptake medium (100 mM NMDG gluconate, 2 mM potassium gluconate, 1 mM calcium gluconate, 1 mM magnesium gluconate, 10 mM HEPES-Tris, pH 6.0 or pH 7.5 as indicated), followed by a 60-minute period for uptake in the same medium supplemented with 1 mM K2^35SO4 (40 μCi/ml). The cells were then washed three times in uptake buffer with 5 mM cold K2SO4 to remove tracer activity in the extracellular fluid. The oocytes were dissolved individually in 10% SDS, and tracer activity was determined by scintillation counting. Uptake of chloride, formate, and oxalate was assayed using the same chloride-free uptake solutions, substituting 8.3 mM ^36Cl, 500 μM [^14C]oxalate, or 50 μM [^14C]formate for labeled sulphate. Each uptake experiment included 12-18 oocytes in each experimental group, and results were reported as means±SEM. […]

SLC26A7 [3] = target: T1, SLC26A7; conditions: 25 mM Cl- added to the medium
Procedure: as §1, §2, §3

SLC26A9 [4] = target: T2, SLC26A9; conditions: 25 mM Cl- added to the medium
Procedure: as §1, §2, §3

Structure (SMILES) | DIDS sensitivity of SLC26A7 36Cl- uptake activity (SLC26A7 [1]) | DIDS sensitivity of Cl-Cl exchange mediated by SLC26A9 (SLC26A9 [2]) | effect of extracellular Cl- on 35SO4 2- uptake by SLC26A2 (SLC26A2) | effect of extracellular Cl- on 35SO4 2- uptake in SLC26A7-injected oocytes (SLC26A7 [3]) | effect of extracellular Cl- on 35SO4 2- uptake in SLC26A9-injected oocytes (SLC26A9 [4])
O=S(=O)(O)c1cc(N=C=S)ccc1C=Cc1ccc(N=C=S)cc1S(=O)(=O)O [DIDS, 4,4′-diisothiocyanatostilbene-2,2′-disulfonic acid] | modestly DIDS-sensitive | moderately sensitive | – | – | –
Cl [Cl^−, chloride] | – | – | significantly inhibited | without activating | without activating
